Patent publication US7989451B2, “Tricyclic 1,2,4-triazine oxides and compositions for therapeutic use in cancer treatments” (Auckland Uniservices Limited, priority 2005, dated 2011)
Like-named read-outs stand apart in the source and are kept apart here.

Tests used:
[1] = test system: human colon carcinoma HT29; experiment: Proliferation assay (IC50) under aerobic and hypoxic conditions, HT29; type: cell-based; conditions: for IC50: Homo sapiens, 4 h drug exposure, sulforhodamine B; for HCR: hypoxic cytotoxicity ratio = IC50 aerobic/IC50 hypoxic
Experimental: (§1) Compounds representative of the invention were evaluated under both aerobic and hypoxic conditions in a proliferation assay (IC50), using two cell lines: human colon carcinoma HT29, and human cervical carcinoma SiHa (Table 1).
(§2) Drug exposures were performed in 96-well plates (Nunc) either using a 37 DC humidified incubator (20% O2, 5% CO2) or in the incubator compartment (37° C.) of an anaerobic chamber (Shell Lab) where palladium catalyst scrubbed gas (90% N2, 5% H2, 5% CO2) ensures severe anoxia (<0.001% O2). For each experiment, compounds were simultaneously tested under both oxic and hypoxic conditions and included TPZ as an internal control. An 8-methyl-5-nitroquinoline derivative, SN 24349, known to require very low oxygen concentrations for bioactivation (Siim et al., Br. J. Cancer 1994, 70, 596-603) was used to confirm that strict hypoxia was present during the experiment. […] Cell cultures were grown in αMEM (Gibco) containing 5% heat inactivated FCS and maintained in exponential growth phase. For each individual experiment an appropriate number of cells were seeded (HT29=1100; SiHa=1500) into wells in αMEM+10% FCS+10 mM added glucose+100 μM 2′-deoxycytidine (2′dCyd), and allowed to attach for 2-3 h. High glucose (final concentration 17 mM) and the presence of 2′-dCyd minimize hypoxia-induced cell cycle arrest. Cultures were then exposed to drugs, using 3-fold serial dilutions in duplicate, for a further 4 h. Subsequently cells were washed free of compound using complete media (without glucose/2′-dCyd) and allowed to grow for 5 (oxic) or 6 (anoxic) days. Plates were stained with sulforhodamine B as described previously (Wilson et al., J. Med. Chem. 1989, 32, 31-38) and IC50 values determined.
(§3) HCR=Hypoxic cytotoxicity ratio is defined as the ratio of IC50 values under aerobic and hypoxic conditions (IC50 aerobic/IC50 hypoxic).

[2] = test system: human cervical carcinoma SiHa; experiment: Proliferation assay (IC50) under aerobic and hypoxic conditions, SiHa; type: cell-based; conditions: for IC50: Homo sapiens, 4 h drug exposure, sulforhodamine B; for HCR: hypoxic cytotoxicity ratio = IC50 aerobic/IC50 hypoxic
Experimental: as §1, §2, §3

[3] = HT-29, hypoxic (anaerobic chamber, <0.001% O2), then 6 days growth, read-out: IC50 (μM) hypoxic
[4] = HT-29, oxic (20% O2), then 5 days growth, read-out: IC50 (μM) oxic
[5] = hypoxic (anaerobic chamber, <0.001% O2), then 6 days growth, read-out: IC50 (μM) hypoxic
[6] = oxic (20% O2), then 5 days growth, read-out: IC50 (μM) oxic

| SMILES | IC50 [1, 3] | IC50 [1, 4] | HCR [1] | IC50 [2, 5] | IC50 [2, 6] | HCR [2] | melting point |
| --- | --- | --- | --- | --- | --- | --- | --- |
| [O-][n+]1nc(NCCCN2CCOCC2)[n+]([O-])c2cc3c(cc21)CCC3 [Compound 61, N-[3-(4-Morpholinyl)propyl]-7,8-dihydro-6H-indeno[5,6-e][1,2,4]triazin-3-amine 1,4-Dioxide] | 21 ± 8 µM | 385 ± 14 µM | 20 ± 5 | 8.8 ± 1.7 µM | 357 ± 35 µM | 44 ± 12 | 158 to 160 °C |
| [O-][n+]1nc(NCCCCN2CCOCC2)[n+]([O-])c2cc3c(cc21)CCC3 [Compound 63, N-[4-(4-Morpholinyl)butyl]-7,8-dihydro-6H-indeno[5,6-e][1,2,4]triazin-3-amine 1,4-Dioxide] | 14.2 µM | 325 ± 70 µM | 28 | 5.3 ± 0.4 µM | 239 ± 22 µM | 46 ± 8 | 140 to 141 °C |
| [O-][n+]1cn[n+]([O-])c2cc3c(cc21)CCC3 [Compound 65, 7,8-Dihydro-6H-indeno[5,6-e][1,2,4]triazine 1,4-Dioxide] | 2.4 ± 0.4 µM | 401 ± 236 µM | 226 ± 153 | 1 ± 0.5 µM | 80 ± 7 µM | 155 ± 117 | 179 to 181 °C |
| CCc1n[n+]([O-])c2cc3c(cc2[n+]1[O-])CCC3 [Compound 68, 3-Ethyl-7,8-dihydro-6H-indeno[5,6-e][1,2,4]triazine 1,4-Dioxide] | 48 ± 8 µM | 289 ± 3 µM | 6.0 ± 0.05 | 37 ± 2 µM | 326 ± 7 µM | 8.8 ± 0.2 | 140 to 142 °C |
| [O-][n+]1nc(CCCO)[n+]([O-])c2cc3c(cc21)CCC3 [Compound 71, 3-(1,4-Dioxido-7,8-dihydro-6H-indeno[5,6-e][1,2,4]triazin-3-yl)-1-propanol] | 15 ± 3 µM | 874 ± 119 µM | 57 ± 1 | 6.9 ± 3.3 µM | 680 ± 95 µM | 114 ± 31 | 153 to 155 °C |
| CC1Cc2cc3c(cc2C1)[n+]([O-])c(NCCN(C)C)n[n+]3[O-] (stereo not shown) [Compound 97, N^1,N^1-Dimethyl-N^2-(7-methyl-1,4-dioxido-7,8-dihydro-6H-indeno[5,6-e][1,2,4]triazin-3-yl)-1,2-ethanediamine] | 3.5 ± 0.4 µM | 185 ± 27 µM | 54 ± 14 | 1.4 ± 0.3 µM | 123 ± 17 µM | 97 ± 33 | 149 to 151 °C |
| CC1Cc2cc3c(cc2C1)[n+]([O-])c(NCCCN1CCOCC1)n[n+]3[O-] (stereo not shown) [Compound 99, 7-Methyl-N-[3-(4-morpholinyl)propyl]-7,8-dihydro-6H-indeno[5,6-e][1,2,4]triazin-3-amine 1,4-Dioxide] | 19 ± 6 µM | 459 ± 93 µM | 25 ± 2 | 8.4 ± 3.2 µM | 415 ± 133 µM | 50 ± 3 | 161 to 163 °C |
| CC1Cc2cc3c(cc2C1)[n+]([O-])c(CCCN1CCOCC1)n[n+]3[O-] (stereo not shown) [Compound 104, 7-Methyl-3-[3-(4-morpholinyl)propyl]-7,8-dihydro-6H-indeno[5,6-e][1,2,4]triazine 1,4-Dioxide] | 2.9 ± 0.1 µM | 210 ± 38 µM | 72 ± 13 | 1.7 ± 0.2 µM | 226 ± 14 µM | 134 ± 4 | 119 to 121 °C |
| CC1Cc2cc3c(cc2C1)[n+]([O-])c(CCCO)n[n+]3[O-] (stereo not shown) [Compound 105, 3-(7-Methyl-1,4-dioxido-7,8-dihydro-6H-indeno[5,6-e][1,2,4]triazin-3-yl)-1-propanol] | 13 ± 1.3 µM | 1040 ± 28 µM | 80 ± 2 | 8 ± 0.4 µM | 831 ± 30 µM | 104 ± 4 | 130 to 131 °C |
| CCc1n[n+]([O-])c2cc3c(cc2[n+]1[O-])CC(CO)C3 (stereo not shown) [Compound 136, (3-Ethyl-1,4-dioxido-7,8-dihydro-6H-indeno[5,6-e][1,2,4]triazin-7-yl)methanol] | 17.1 µM | 774 ± 8 µM | 45 | 6.5 ± 0.2 µM | 314 ± 60 µM | 48 ± 8 | 157 to 158 °C |
